Molecular target: Muscarinic acetylcholine receptor (Cavia porcellus, UniProt Q8VH26)
Assay: Muscarinic acetylcholine receptor M3 agonistic/antagonistic activity in guinea pig ileum

Chain of Muscarinic acetylcholine receptor (Q8VH26 whole entry): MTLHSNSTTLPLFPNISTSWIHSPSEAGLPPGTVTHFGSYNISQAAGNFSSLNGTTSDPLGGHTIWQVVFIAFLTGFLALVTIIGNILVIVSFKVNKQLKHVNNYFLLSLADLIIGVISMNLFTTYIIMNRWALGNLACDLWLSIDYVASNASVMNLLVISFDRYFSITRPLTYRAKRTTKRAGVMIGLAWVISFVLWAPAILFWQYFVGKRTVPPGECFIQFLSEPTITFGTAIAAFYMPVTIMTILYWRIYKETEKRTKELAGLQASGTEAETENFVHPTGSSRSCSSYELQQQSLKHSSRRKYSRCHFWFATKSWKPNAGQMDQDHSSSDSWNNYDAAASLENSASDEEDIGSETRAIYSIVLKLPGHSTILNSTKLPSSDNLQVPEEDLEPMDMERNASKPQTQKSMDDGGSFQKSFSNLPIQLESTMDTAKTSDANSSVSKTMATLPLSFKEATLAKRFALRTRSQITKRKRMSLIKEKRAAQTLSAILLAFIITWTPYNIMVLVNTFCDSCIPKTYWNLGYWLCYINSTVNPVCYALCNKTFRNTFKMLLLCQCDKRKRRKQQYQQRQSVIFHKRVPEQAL

## CC(C#CCN1CCCC1)N1CCCC1=O (stereo not drawn)
  EC50: < 1 nM

## CC(C#CCN1CCCC1)N1CCNC1=O (stereo not drawn)
  EC50: < 1 nM

## CC(C#CCN1CCCC1)N(C)C(N)=O (stereo not drawn)
  EC50: < 1 nM

From BindingDB's records for doi:10.1021/jm00095a025 (University of Uppsala, 1992)
